Numbers after ± are expanded uncertainties.
Assay: mn = molality of the nth substance listed, in mol/kg
Details: 101.3 kPa, Liquid, Vibrating tube method

O=C([O-])CC(O)(CC(=O)[O-])C(=O)[O-].[Li+].[Li+].[Li+] [trilithium citrate] + O
Details	mass density [kg/m3]
278.15 K, m1 = 0.0128	1002 ± 0.25
278.15 K, m1 = 0.0256	1003.88 ± 0.25
278.15 K, m1 = 0.06	1008.52 ± 0.24
278.15 K, m1 = 0.1021	1013.86 ± 0.24
278.15 K, m1 = 0.1956	1026.51 ± 0.24
278.15 K, m1 = 0.293	1038.92 ± 0.24
278.15 K, m1 = 0.3876	1050.53 ± 0.24
278.15 K, m1 = 0.4799	1061.45 ± 0.24
278.15 K, m1 = 0.6695	1083.25 ± 0.24
278.15 K, m1 = 0.7552	1092.43 ± 0.24
278.15 K, m1 = 0.8394	1101.64 ± 0.24
278.15 K, m1 = 0.9407	1112.23 ± 0.24
278.15 K, m1 = 1.33	1149.11 ± 0.24
278.15 K, m1 = 1.74	1185.46 ± 0.25
283.15 K, m1 = 0.0128	1001.66 ± 0.25
283.15 K, m1 = 0.0256	1003.48 ± 0.24
283.15 K, m1 = 0.06	1008.09 ± 0.24
283.15 K, m1 = 0.1021	1013.43 ± 0.24
283.15 K, m1 = 0.1956	1025.89 ± 0.24
283.15 K, m1 = 0.293	1038.19 ± 0.24
283.15 K, m1 = 0.3876	1049.67 ± 0.24
283.15 K, m1 = 0.4799	1060.48 ± 0.24
283.15 K, m1 = 0.6695	1082.11 ± 0.24
283.15 K, m1 = 0.7552	1091.22 ± 0.24
283.15 K, m1 = 0.8394	1100.37 ± 0.24
283.15 K, m1 = 0.9407	1110.89 ± 0.24
283.15 K, m1 = 1.33	1147.56 ± 0.24
283.15 K, m1 = 1.74	1183.73 ± 0.25
288.15 K, m1 = 0.0128	1001.03 ± 0.25
288.15 K, m1 = 0.0256	1002.83 ± 0.24
288.15 K, m1 = 0.06	1007.41 ± 0.24
288.15 K, m1 = 0.1021	1012.68 ± 0.24
288.15 K, m1 = 0.1956	1025.03 ± 0.24
288.15 K, m1 = 0.293	1037.23 ± 0.24
288.15 K, m1 = 0.3876	1048.63 ± 0.24
288.15 K, m1 = 0.4799	1059.37 ± 0.24
288.15 K, m1 = 0.6695	1080.85 ± 0.24
288.15 K, m1 = 0.7552	1089.92 ± 0.24
288.15 K, m1 = 0.8394	1099.01 ± 0.24
288.15 K, m1 = 0.9407	1109.48 ± 0.24
288.15 K, m1 = 1.33	1145.98 ± 0.24
288.15 K, m1 = 1.74	1182.04 ± 0.25
293.15 K, m1 = 0.0128	1000.13 ± 0.25
293.15 K, m1 = 0.0256	1001.93 ± 0.24
293.15 K, m1 = 0.06	1006.4 ± 0.24
293.15 K, m1 = 0.1021	1011.71 ± 0.24
293.15 K, m1 = 0.1956	1023.97 ± 0.24
293.15 K, m1 = 0.293	1036.06 ± 0.24
293.15 K, m1 = 0.3876	1047.42 ± 0.24
293.15 K, m1 = 0.4799	1058.1 ± 0.24
293.15 K, m1 = 0.6695	1079.46 ± 0.24
293.15 K, m1 = 0.7552	1088.49 ± 0.24
293.15 K, m1 = 0.8394	1097.55 ± 0.24
293.15 K, m1 = 0.9407	1107.97 ± 0.24
293.15 K, m1 = 1.33	1144.34 ± 0.24
293.15 K, m1 = 1.74	1180.29 ± 0.25
298.15 K, m1 = 0.0128	998.94 ± 0.25
298.15 K, m1 = 0.0256	1000.72 ± 0.24
298.15 K, m1 = 0.06	1005.21 ± 0.24
298.15 K, m1 = 0.1021	1010.53 ± 0.24
298.15 K, m1 = 0.1956	1022.63 ± 0.24
298.15 K, m1 = 0.293	1034.68 ± 0.24
298.15 K, m1 = 0.3876	1045.95 ± 0.24
298.15 K, m1 = 0.4799	1056.57 ± 0.24
298.15 K, m1 = 0.6695	1077.86 ± 0.24
298.15 K, m1 = 0.7552	1086.85 ± 0.24
298.15 K, m1 = 0.8394	1095.87 ± 0.24
298.15 K, m1 = 0.9407	1106.24 ± 0.24
298.15 K, m1 = 1.33	1142.51 ± 0.24
298.15 K, m1 = 1.74	1178.37 ± 0.25
303.15 K, m1 = 0.0128	997.54 ± 0.25
303.15 K, m1 = 0.0256	999.32 ± 0.24
303.15 K, m1 = 0.06	1003.8 ± 0.24
303.15 K, m1 = 0.1021	1008.95 ± 0.24
303.15 K, m1 = 0.1956	1021.12 ± 0.24
303.15 K, m1 = 0.293	1033.1 ± 0.24
303.15 K, m1 = 0.3876	1044.36 ± 0.24
303.15 K, m1 = 0.4799	1054.93 ± 0.24
303.15 K, m1 = 0.6695	1076.13 ± 0.24
303.15 K, m1 = 0.7552	1085.11 ± 0.24
303.15 K, m1 = 0.8394	1094.1 ± 0.24
303.15 K, m1 = 0.9407	1104.46 ± 0.23
303.15 K, m1 = 1.33	1140.64 ± 0.24
303.15 K, m1 = 1.74	1176.43 ± 0.24
308.15 K, m1 = 0.0128	995.93 ± 0.25
308.15 K, m1 = 0.0256	997.69 ± 0.24
308.15 K, m1 = 0.06	1002.15 ± 0.24
308.15 K, m1 = 0.1021	1007.28 ± 0.24
308.15 K, m1 = 0.1956	1019.42 ± 0.24
308.15 K, m1 = 0.293	1031.35 ± 0.24
308.15 K, m1 = 0.3876	1042.52 ± 0.24
308.15 K, m1 = 0.4799	1053.1 ± 0.24
308.15 K, m1 = 0.6695	1074.26 ± 0.24
308.15 K, m1 = 0.7552	1083.2 ± 0.24
308.15 K, m1 = 0.8394	1092.17 ± 0.24
308.15 K, m1 = 0.9407	1102.51 ± 0.23
308.15 K, m1 = 1.33	1138.61 ± 0.24
308.15 K, m1 = 1.74	1174.35 ± 0.24
313.15 K, m1 = 0.0128	994.08 ± 0.25
313.15 K, m1 = 0.0256	995.83 ± 0.24
313.15 K, m1 = 0.06	1000.28 ± 0.24
313.15 K, m1 = 0.1021	1005.41 ± 0.24
313.15 K, m1 = 0.1956	1017.49 ± 0.24
313.15 K, m1 = 0.293	1029.43 ± 0.24
313.15 K, m1 = 0.3876	1040.59 ± 0.24
313.15 K, m1 = 0.4799	1051.12 ± 0.24
313.15 K, m1 = 0.6695	1072.2 ± 0.24
313.15 K, m1 = 0.7552	1081.14 ± 0.24
313.15 K, m1 = 0.8394	1090.09 ± 0.24
313.15 K, m1 = 0.9407	1100.41 ± 0.23
313.15 K, m1 = 1.33	1136.47 ± 0.24
313.15 K, m1 = 1.74	1172.18 ± 0.24
318.15 K, m1 = 0.0128	992.05 ± 0.25
318.15 K, m1 = 0.0256	993.81 ± 0.24
318.15 K, m1 = 0.06	998.26 ± 0.24
318.15 K, m1 = 0.1021	1003.38 ± 0.24
318.15 K, m1 = 0.1956	1015.42 ± 0.24
318.15 K, m1 = 0.293	1027.35 ± 0.24
318.15 K, m1 = 0.3876	1038.47 ± 0.24
318.15 K, m1 = 0.4799	1048.98 ± 0.24
318.15 K, m1 = 0.6695	1070.04 ± 0.24
318.15 K, m1 = 0.7552	1078.96 ± 0.24
318.15 K, m1 = 0.8394	1087.9 ± 0.24
318.15 K, m1 = 0.9407	1098.21 ± 0.23
318.15 K, m1 = 1.33	1134.23 ± 0.24
318.15 K, m1 = 1.74	1169.9 ± 0.24
323.15 K, m1 = 0.0128	989.86 ± 0.25
323.15 K, m1 = 0.0256	991.58 ± 0.24
323.15 K, m1 = 0.06	996.08 ± 0.24
323.15 K, m1 = 0.1021	1001.19 ± 0.24
323.15 K, m1 = 0.1956	1013.22 ± 0.24
323.15 K, m1 = 0.293	1025.12 ± 0.24
323.15 K, m1 = 0.3876	1036.24 ± 0.24
323.15 K, m1 = 0.4799	1046.74 ± 0.24
323.15 K, m1 = 0.6695	1067.78 ± 0.24
323.15 K, m1 = 0.7552	1076.68 ± 0.24
323.15 K, m1 = 0.8394	1085.62 ± 0.24
323.15 K, m1 = 0.9407	1095.92 ± 0.23
323.15 K, m1 = 1.33	1131.93 ± 0.24
323.15 K, m1 = 1.74	1167.57 ± 0.24
328.15 K, m1 = 0.0128	987.52 ± 0.25
328.15 K, m1 = 0.0256	989.24 ± 0.24
328.15 K, m1 = 0.06	993.72 ± 0.24
328.15 K, m1 = 0.1021	998.82 ± 0.24
328.15 K, m1 = 0.1956	1010.84 ± 0.24
328.15 K, m1 = 0.293	1022.76 ± 0.24
328.15 K, m1 = 0.3876	1033.86 ± 0.24
328.15 K, m1 = 0.4799	1044.36 ± 0.24
328.15 K, m1 = 0.6695	1065.38 ± 0.24
328.15 K, m1 = 0.7552	1074.27 ± 0.24
328.15 K, m1 = 0.8394	1083.21 ± 0.24
328.15 K, m1 = 0.9407	1093.5 ± 0.23
328.15 K, m1 = 1.33	1129.51 ± 0.24
328.15 K, m1 = 1.74	1165.14 ± 0.24
333.15 K, m1 = 0.0128	985.04 ± 0.24
333.15 K, m1 = 0.0256	986.7 ± 0.24
333.15 K, m1 = 0.06	991.24 ± 0.24
333.15 K, m1 = 0.1021	996.31 ± 0.24
333.15 K, m1 = 0.1956	1008.42 ± 0.24
333.15 K, m1 = 0.293	1020.27 ± 0.24
333.15 K, m1 = 0.3876	1031.35 ± 0.24
333.15 K, m1 = 0.4799	1041.87 ± 0.24
333.15 K, m1 = 0.6695	1062.87 ± 0.24
333.15 K, m1 = 0.7552	1071.77 ± 0.24
333.15 K, m1 = 0.8394	1080.69 ± 0.24
333.15 K, m1 = 0.9407	1090.99 ± 0.23
333.15 K, m1 = 1.33	1127.01 ± 0.24
333.15 K, m1 = 1.74	1162.66 ± 0.24
338.15 K, m1 = 0.0128	982.43 ± 0.24
338.15 K, m1 = 0.0256	984.02 ± 0.24
338.15 K, m1 = 0.06	988.59 ± 0.24
338.15 K, m1 = 0.1021	993.66 ± 0.24
338.15 K, m1 = 0.1956	1005.8 ± 0.24
338.15 K, m1 = 0.293	1017.67 ± 0.24
338.15 K, m1 = 0.3876	1028.73 ± 0.24
338.15 K, m1 = 0.4799	1039.22 ± 0.24
338.15 K, m1 = 0.6695	1060.25 ± 0.24
338.15 K, m1 = 0.7552	1069.15 ± 0.24
338.15 K, m1 = 0.8394	1078.19 ± 0.24
338.15 K, m1 = 0.9407	1088.43 ± 0.23
338.15 K, m1 = 1.33	1124.43 ± 0.24
338.15 K, m1 = 1.74	1160.09 ± 0.24
343.15 K, m1 = 0.0128	979.51 ± 0.24
343.15 K, m1 = 0.0256	981.2 ± 0.24
343.15 K, m1 = 0.06	985.85 ± 0.24
343.15 K, m1 = 0.1021	990.99 ± 0.24
343.15 K, m1 = 0.1956	1002.94 ± 0.24
343.15 K, m1 = 0.293	1014.95 ± 0.24
343.15 K, m1 = 0.3876	1026.06 ± 0.24
343.15 K, m1 = 0.4799	1036.55 ± 0.24
343.15 K, m1 = 0.6695	1057.62 ± 0.24
343.15 K, m1 = 0.7552	1066.41 ± 0.24
343.15 K, m1 = 0.8394	1075.46 ± 0.24
343.15 K, m1 = 0.9407	1085.78 ± 0.23
343.15 K, m1 = 1.33	1121.83 ± 0.24
343.15 K, m1 = 1.74	1157.54 ± 0.24

Source: the NIST ThermoML archive (doi:10.1016/j.jct.2016.04.020)
